Source: ChEMBL document CHEMBL3779891 (Eur J Med Chem, 2016)
Activity calls are given as the source filed them. The calls are words filed in the database; no cut-off is given here.

Columns and labels:
HepG2 [1] = assay: Antioxidant activity in human HepG2 cells assessed as decrease in fluorescence level by measuring ratio of micromol of quercetin to 100 umol of compound after 2.5 hrs measured every 5 mins for 1 hr by DCFH-DA staining based fluorescence assay; type: functional; set-up: scale not given: the % may be the effect or the level left
HepG2 [2] = assay: Antioxidant activity in human HepG2 cells assessed as decrease in fluorescence level after 2.5 hrs measured every 5 mins for 1 hr by DCFH-DA staining based fluorescence assay; type: functional, cell-based
Erythrocyte [3] = assay: Cytoprotective activity in human erythrocytes assessed as inhibition of AAPH-induced oxidative hemolysis at 100 ug/ml preincubated for 30 mins followed by AAPH induction measured after 2 hrs by spectrophotometric analysis relative to control; type: functional
Erythrocyte [4] = assay: Cytoprotective activity in human erythrocytes assessed as inhibition of AAPH-induced oxidative hemolysis preincubated for 30 mins followed by AAPH induction measured after 2 hrs by spectrophotometric analysis; type: functional, cell-based
Erythrocyte [5] = assay: Inhibition of lipid peroxidation in human erythrocytes assessed as reduction in AAPH-induced malondialdehyde formation at 100 ug/ml preincubated for 20 mins followed by AAPH addition measured after 2 hrs by […] relative to untreated control; type: functional
Erythrocyte [6] = assay: Inhibition of AAPH-induced oxidative hemolysis in human erythrocytes assessed as smooth and round surface at 100 ug/ml preincubated for 20 mins followed by AAPH addition measured after 2 hrs by scanning electron microscopic analysis; type: functional, cell-based
Catalase (Homo sapiens) = target: T1, Catalase (Homo sapiens) (UniProt P04040); assay: Reduction of catalase activity in human erythrocytes at 100 ug/ml preincubated followed by AAPH addition measured after 2 hrs; type: cell-based; set-up: scale not given: the % may be the effect or the level left
T1 sequence (whole entry): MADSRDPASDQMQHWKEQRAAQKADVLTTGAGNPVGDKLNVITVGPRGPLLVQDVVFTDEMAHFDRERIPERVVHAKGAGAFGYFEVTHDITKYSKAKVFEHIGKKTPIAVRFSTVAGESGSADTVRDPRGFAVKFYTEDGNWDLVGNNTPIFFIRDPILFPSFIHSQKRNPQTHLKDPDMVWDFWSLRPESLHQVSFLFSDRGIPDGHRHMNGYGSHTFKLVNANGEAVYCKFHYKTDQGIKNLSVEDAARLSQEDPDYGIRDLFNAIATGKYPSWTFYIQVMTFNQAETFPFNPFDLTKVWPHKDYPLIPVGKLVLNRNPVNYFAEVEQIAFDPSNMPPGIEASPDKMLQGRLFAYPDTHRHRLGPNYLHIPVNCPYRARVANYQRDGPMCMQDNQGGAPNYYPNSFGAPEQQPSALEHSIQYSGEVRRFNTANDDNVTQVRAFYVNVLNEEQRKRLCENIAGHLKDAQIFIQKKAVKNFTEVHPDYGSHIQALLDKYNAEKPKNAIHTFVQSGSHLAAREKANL

[7] = target: Superoxide dismutase [Cu-Zn] (Homo sapiens) (UniProt P00441); assay: Induction of superoxide dismutase activity in human erythrocytes at 100 ug/ml preincubated followed by AAPH addition measured after 2 hrs; type: cell-based
Homo sapiens = species: Homo sapiens; assay: Induction of glutathione peroxidase activity in human erythrocytes at 100 ug/ml preincubated followed by AAPH addition measured after 2 hrs; type: cell-based
HepG2 [8] = assay: Antioxidant activity in human HepG2 cells assessed as decrease in AAPH-induced ROS level at 100 ug/ml preincubated for 2 hrs followed by AAPH addition by DCFH-DA staining based microplate fluorometric analysis relative to control; type: functional; set-up: scale not given: the % may be the effect or the level left
A549 [9] = assay: Antiproliferative activity against human A549 cells assessed as reduction in cell survival after 48 hrs by MTT assay; type: functional, cell-based
HeLa [10] = assay: Antiproliferative activity against human HeLa cells assessed as reduction in cell survival after 48 hrs by MTT assay; type: functional, cell-based
SGC-7901 = assay: Antiproliferative activity against human SGC7901 cells assessed as reduction in cell survival after 48 hrs by MTT assay; type: functional, cell-based
MCF7 [11] = assay: Antiproliferative activity against human MCF7 cells assessed as reduction in cell survival after 48 hrs by MTT assay; type: functional, cell-based
A549 [12] = assay: Antiproliferative activity against human A549 cells assessed as cell survival at 100 ug/ml after 48 hrs by MTT assay relative to control; type: functional; conditions: A549, 48 h, read-out: Survival
HeLa [13] = assay: Antiproliferative activity against human HeLa cells assessed as cell survival at 100 ug/ml after 48 hrs by MTT assay relative to control; type: functional; conditions: read-out: Survival
[14] = Antiproliferative activity against human SGC7901 cells assessed as cell survival at 100 ug/ml after 48 hrs by MTT assay relative to control; type: functional; conditions: SGC-7901, 48 h, read-out: Survival
MCF7 [15] = assay: Antiproliferative activity against human MCF7 cells assessed as cell survival at 100 ug/ml after 48 hrs by MTT assay relative to control; type: functional; conditions: MCF7, 48 h, read-out: Survival
MCF7 [16] = assay: Induction of apoptosis in human MCF7 cells assessed as nuclear morphological deformity at 500 ug/ml after 12 hrs by scanning electron microscopic analysis; type: functional, cell-based
MCF7 [17] = assay: Induction of apoptosis in human MCF7 cells assessed as chromatin condensation at 500 ug/ml after 12 hrs by scanning electron microscopic analysis; type: functional, cell-based
MCF7 [18] = assay: Induction of apoptosis in human MCF7 cells assessed as cell shrinkage at 500 ug/ml after 24 hrs by scanning electron microscopic analysis; type: functional, cell-based
MCF7 [19] = assay: Induction of apoptosis in human MCF7 cells assessed as cytoplasm overflow at 500 ug/ml after 24 hrs by scanning electron microscopic analysis; type: functional, cell-based
MCF7 [20] = assay: Induction of apoptosis in human MCF7 cells assessed as morphological deformity at 500 ug/ml after 48 hrs by scanning electron microscopic analysis; type: functional, cell-based
MCF7 [21] = assay: Induction of apoptosis in human MCF7 cells assessed as plasma membrane blebbing at 500 ug/ml after 48 hrs by scanning electron microscopic analysis; type: functional, cell-based
MCF7 [22] = assay: Induction of apoptosis in human MCF7 cells assessed as apoptotic bodies at 500 ug/ml after 48 hrs by scanning electron microscopic analysis; type: functional, cell-based
MCF7 [23] = assay: Induction of apoptosis in human MCF7 cells assessed as morphological changes at 500 ug/ml by scanning electron microscopic analysis; type: functional, cell-based; conditions: TDE = time-dependent effect
MCF7 [24] = assay: Induction of apoptosis in human MCF7 cells assessed as chromatin hypercondensation at 25 to 100 ug/ml after 48 hrs by Hoechst 33258 staining based fluorescence microscopic analysis; type: functional, cell-based
MCF7 [25] = assay: Induction of apoptosis in human MCF7 cells assessed as mitochondrial membrane potential loss at 100 ug/ml after 48 hrs by JC-1 staining based fluorescence microscopic analysis; type: functional, cell-based

Sequence of Superoxide dismutase [Cu-Zn] (Homo sapiens) (P00441 whole entry): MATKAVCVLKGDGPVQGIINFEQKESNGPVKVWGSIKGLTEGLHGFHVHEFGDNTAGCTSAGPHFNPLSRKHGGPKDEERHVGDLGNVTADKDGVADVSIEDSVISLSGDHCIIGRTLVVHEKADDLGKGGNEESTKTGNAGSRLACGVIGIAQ

COc1ccc(-c2cc(=O)c3c(O)cc(O)cc3o2)cc1O [DIOSMETIN]
Activity (HepG2 [1]): 58% | EC50 (HepG2 [2]): 7.98 µmol

O=C(O[C@@H]1Cc2c(O)cc(O)cc2O[C@@H]1c1cc(O)c(O)c(O)c1)c1cc(O)c(O)c(O)c1 [EPIGALOCATECHIN GALLATE]
Activity (HepG2 [1]): 33.1%

O=c1c(O)c(-c2ccc(O)cc2)oc2cc(O)cc(O)c12 [KAEMPFEROL]
Activity (HepG2 [1]): 59.8% | Activity (HepG2 [2]): Dose-dependent effect | EC50 (HepG2 [2]): 7.74 µmol | inhibition at 100 µg/mL (Erythrocyte [3]): 87.4% | inhibition (Erythrocyte [4]): Dose-dependent effect | inhibition at 100 µg/mL (Erythrocyte [5]): 36.5% | inhibition (Erythrocyte [6]): Active | Activity (Catalase (Homo sapiens)): < 95.5% | Activity [7]: inactive | Activity (Homo sapiens): inactive | Activity (HepG2 [8]): 88.25% | Activity (A549 [9]): Dose-dependent effect | Activity (HeLa [10]): Dose-dependent effect | Activity (SGC-7901): Dose-dependent effect | Activity (MCF7 [11]): Dose-dependent effect | viability at 100 µg/mL (A549 [12]): 60.2% | viability at 100 µg/mL (HeLa [13]): 57.5% | viability at 100 µg/mL [14]: 59.2% | viability at 100 µg/mL (MCF7 [15]): 47.9% | Activity (MCF7 [16]): Active | Activity (MCF7 [17]): Active | Activity (MCF7 [18]): Active | Activity (MCF7 [19]): Active | Activity (MCF7 [20]): Active | Activity (MCF7 [21]): Active | Activity (MCF7 [22]): Active | Activity (MCF7 [23]): tde | Activity (MCF7 [24]): Active | Activity (MCF7 [25]): Active

O=c1cc(-c2ccc(O)c(O)c2)oc2cc(O)cc(O)c12 [LUTEOLIN]
Activity (HepG2 [1]): 32.3%

O=c1c(O)c(-c2cc(O)c(O)c(O)c2)oc2cc(O)cc(O)c12 [MYRICETIN]
Activity (HepG2 [1]): 36.8%

O=c1c(O)c(-c2ccc(O)c(O)c2)oc2cc(O)cc(O)c12 [QUERCETIN]
EC50 (HepG2 [2]): 4.63 µmol
